“Also recorded” adds a separate entry of the source. One block for each molecule: values may come before it. * marks the point of attachment. Palmitoyl = CCCCCCCCCCCCCCCC(=O)*
B1: Tmem100 (wild-type, full-length, mouse) (other)
chain: MTEESTKENLGAPKSPTPVTMEKNPKREVVVTTGPLVSEVQLMAATGGAELSCYRCIIPFAVVVFITGIVVTAVAYSFNSHGSIISIFGLVLLSSGLFLLASSALCWKVRQRNKKVKRRESQTALVVNQRCLFA
notes: also called Pirt2; T100
B2: TRPV1 (endogenous, mouse DRG) (receptor, UniProt Q704Y3 1-839, looked up)
chain: MEKWASLDSDESEPPAQENSCPDPPDRDPNSKPPPAKPHIFATRSRTRLFGKGDSEEASPMDCPYEEGGLASCPIITVSSVVTLQRSVDGPTCLRQTSQDSVSTGVETPPRLYDRRSIFDAVAQSNCQELESLLSFLQKSKKRLTDSEFKDPETGKTCLLKAMLNLHNGQNDTIALLLDIARKTDSLKQFVNASYTDSYYKGQTALHIAIERRNMALVTLLVENGADVQAAANGDFFKKTKGRPGFYFGELPLSLAACTNQLAIVKFLLQNSWQPADISARDSVGNTVLHALVEVADNTADNTKFVTNMYNEILILGAKLHPTLKLEELTNKKGLTPLALAASSGKIGVLAYILQREIHEPECRHLSRKFTEWAYGPVHSSLYDLSCIDTCEKNSVLEVIAYSSSETPNRHDMLLVEPLNRLLQDKWDRFVKRIFYFNFFVYCLYMIIFTTAAYYRPVEGLPPYKLNNTVGDYFRVTGEILSVSGGVYFFFRGIQYFLQRRPSLKSLFVDSYSEILFFVQSLFMLVSVVLYFSHRKEYVASMVFSLAMGWTNMLYYTRGFQQMGIYAVMIEKMILRDLCRFMFVYLVFLFGFSTAVVTLIEDGKNNSLPVESPPHKCRGSACRPGNSYNSLYSTCLELFKFTIGMGDLEFTENYDFKAVFIILLLAYVILTYILLLNMLIALMGETVNKIAQESKNIWKLQRAITILDTEKSFLKCMRKAFRSGKLLQVGFTPDGKDDFRWCFRVDEVNWTTWNTNVGIINEDPGNCEGVKRTLSFSLRSGRVSGRNWKNFALVPLLRDASTRDRHSTQPEEVQLKHYTGSLKPEDAEVFKDSMAPGEK
notes: whole, on cells

Key:
[1] = tested on: ongoing neuropathic pain in SNL rats; experiment: Conditioned place preference test for ongoing pain in SNL rats; type: in vivo, rat; settings: intrathecal 50 μM, 10 μl; for conditioned place preference: time in drug-paired chamber, SNL rats: scramble peptide-paired chamber as comparison
Description: Ongoing, or spontaneous, pain, which is most bothersome to patients, is difficult to treat and difficult to study in animals. The conditioned place preference test has been successfully developed to reveal the presence of non-evoked, ongoing pain and pain relief based on the preference of an animal for the context paired with a pain-relief treatment. The conditioned place preference can also capture the aversive aspects of pain. Strikingly, many studies have shown that the rodent conditioned place preference test accurately reflects the effectiveness of human clinical treatments. Therefore, this test is a powerful approach to investigate the potential effectiveness of new treatments and mechanisms for relief of ongoing pain. Two previous studies have examined the role of TRPA1 in ongoing pain by the conditioned place preference test. […] Because the antagonists used in those studies (HC030031 and Chem5861528) target TRPA1 monomers, it is possible that T100-Mut can inhibit ongoing pain by modulating the TRPA1/V1 complex. This possibility was tested in rodents with SNL-induced ongoing pain using the conditioned place preference test. […] Systemic administration of gabapentin, an analgesic that is known to alleviate neuropathic pain, was used as a positive control (FIG. 16B).

[2] = tested on: SNL-induced mechanical hyperalgesia in wild-type mice; experiment: Spinal nerve ligation (SNL) in wild-type mice, mechanical hyperalgesia; type: in vivo, mouse; settings: day 6 post ligation, 4 hrs post CPP; 5 μl of 2 mM intradermal in hindpaws
Experimental: In the wild-type mice with spinal nerve ligation (SNL), mechanical hyperalgesia is observed 6 days post ligation. Palmitoylated (Pal) CPP tailored to the C-terminus of human Tmem100-3Q alleviates neuropathic pain/mechanical allodynia in SNL. n=6, *p<0.05 at Day 6 4 hrs post CPP treatment. Scrambled: open bar; human P2-Mut (T100-Mut): black bar (FIG. 17). Peptides (5 μl of 2 mM) were injected intradermally in the hindpaws. Sequences for CPP used in the SNL experiment:
Human P2-Mut (T100-Mut) Pal-[…]-OH (SEQ ID NO: 7); Scrambled Pal-[…]-OH (SEQ ID NO: 19). Pal-palmitoylated in the N termini for each CPP.

[3] = tested on: neuropathic mechanical hypersensitivity in SNL rats; type: in vivo, rat; settings: intrathecal 10 μl
Description: An modified L5 SNL model was produced as described in previously (He et al., 2014; Shechter et al., 2013). Male Sprague-Dawley rats (200-350 g, Harlan, Indianapolis, Ind.) were anesthetized with 2% isoflurane. The left L5 spinal nerve was ligated with a 6-0 silk suture and cut distally. The muscle layer was closed with 4-0 chromic gut suture and the skin closed with metal clips. For intrathecal catheter implantation, a small slit was cut in the atlanto-occipital membrane of rats, into which a saline-filled piece of PE-10 tubing (6-7 cm) was inserted (He et al., 2014). […] Hypersensitivity to punctuate mechanical stimulation was determined with the up-down method by using a series of von Frey filaments (0.38-15.1 g) applied for 4-6 seconds to the test area on the plantar surface of the hindpaw (Chaplan et al., 1994; He et al., 2014). The PWT was determined according to the formula provided by Dixon (Dixon, 1980). […] HC-030031 was purchased from Tocris Bioscience (Bristol, UK). Both drugs were dissolved in 10% dimethylsulfoxide (DMSO), 5% Tween 80 and 85% sterile saline solution. The final working solution which was injected by intrathecal route contained <1% DMSO. The number of animals used in each study was based on experience with similar studies and power analysis calculations. Animals were randomized to the different treatment groups and blinded the experimenter to drug treatment to reduce selection and observation bias. After the experiments were completed, no data point was excluded. STATISTICA 6.0 software (StatSoft, Inc., Tulsa, Okla.) was used to conduct all statistical analyses. The Tukey honestly significant difference (HSD) post-hoc test was used to compare specific data points. Bonferroni correction was applied for multiple comparisons. Two-tailed tests were performed, and data are expressed as mean±SEM; P<0.05 was considered significant in all tests.
The sequence from the last 28 amino acids of the C-terminus of the Tmem100-3Q mutant protein was synthesized and myristoylated at its N-terminus (myr-[…]-COOH) (SEQ ID NO: 8) by Twentyfirst Century Biochemicals. […] For the calcium imaging assay, the peptides were added to the calcium imaging buffer with a final concentration of 200 nM and incubated for at least […] at room temperature. For the mice behavioral assays, the peptides (5 μL, 2 mM) were injected subcutaneously in the hindpaw at least 30 minutes before testing. For the rat behavior assays, human T100-3Q (h-T100), a palmitoylated cell permeable peptide mutated based on the C terminus of human sequence in Tmem100, was applied. The sequence is Palmitoyl-[…]-COOH (SEQ ID NO: 7).

[4] = tested on: paclitaxel (Taxol)-induced mechanical hyperalgesia in wild-type mice; experiment: Paclitaxel-induced mechanical hyperalgesia; type: in vivo, mouse; settings: F2 5 μl 100 μM intradermal injection
Experimental: Mice were placed in a transparent plastic box (4.5×5×10 cm) on a metal mesh and acclimatized for 30 minutes prior to testing. Each mouse was tested more than 5 times at a specific force manually, and the threshold was determined by the lowest force needed to elicit responses more than 50% of the time.
Mice were injected with paclitaxel (Sigma T7191) intraperitoneally at the dose of 6 mg/kg, as previously described (Materazzi et al., 2012). Seven days after paclitaxel injection, the mice were assayed with Von Frey methods for mechanical hyperalgesia, both before and four hours after injection of cell permeable peptides.

TRPA1 = tested on: T1, TRPA1; experiment: Calcium imaging of HEK293T cells expressing TRPA1 and TRPV1 (MO or CA); type: cell-based; settings: shortened CPP 2 μM; CA 10 μM; HEK293 TRPA1+TRPV1; vs scrambled
T1 construct: percentage of cells responsive to CA; other: shortened CPP 2 μM; CA 10 μM; HEK293 TRPA1+TRPV1; vs scrambled; percentage of cells responsive to MO; other: peptide 200 nM pre-treatment; 500 nM MO; HEK293T TRPA1+TRPV1; percentage of cells that respond to 100 nM MO and 10 μM CA; other: HEK293T TRPA1+TRPV1, Tmem100-3Q-transfected vs lacki; reduction in the percentage of cells responding to MO

TRPV1-CFP [5] = experiment: FRET with TIRF microscopy, COS-7 cells, wild-type Tmem100 co-expressed
TRPV1-CFP [6] = experiment: FRET with TIRF microscopy, COS-7 cells, Tmem100-3Q co-expressed
[7] = biological target: T2, TRPA1 (endogenous, mouse DRG) (mouse, UniProt Q8BLA8 1-1125); experiment: co-immunoprecipitation from mouse DRG lysates
T2 construct: whole, on cells
Description: (§1) All groups were transfected with TRPV1-CFP and TRPA1-YFP except for the Rho-pYC (as a positive control for maximal effects of the system) and M-V1 (negative control) groups, where Rho-pYC and membrane-tethered YFP+TRPV1-CFP, respectively, were transfected instead. FRET efficiencies were highest in Tmem100-3Q-transfected cells (A1-V1-3Q), followed by the empty vector-transfected groups (A1-V1), and were lowest in cells transfected with wild-type Tmem100 (A1-V1-WT). The statistic is one-way ANOVA (*$p<0.05$; $p<0.01$, *$p<0.001$). Data are presented as mean±SEM. FIG. 5F is a table showing a summary of the data from FIG. 5E.
(§2) DRG from all levels or CHO cells transfected with Trpv1, Trpa1, and Tmem100-myc were used. Whole cell DRG or CHO cells lysates were generated 24 h after transfection, and Co-IP with either 1 µg myc antibody (EMD Millipore) or 1 µg TRPV1 antibody (Santa Cruz, R130) as described (Akopian et al., 2007) Immunoprecipitants and cell lysate aliquots were resolved by SDS-PAGE and immunoblotted with 1:1000 anti-TRPV1 antibody (Santa Cruz, R130), 1:500 anti-Tmem100 antibody, 1:1000 anti-TRPA1 (Novus), or 1:1000 anti-myc (EMD Millipore). Secondary antibodies for visualization included donkey anti-rabbit and anti-mouse HRP-conjugated antibodies (GE Biosciences). […]

[8] = biological target: B2; experiment: co-immunoprecipitation from mouse DRG lysates
Description: as §1, §2

[9] = biological target: T2, TRPA1 (endogenous, mouse DRG); experiment: co-IP with Tmem100 and TRPV1 antibodies, Western blot, mouse DRG lysates
Description: as §1, §2

T2 sequence (Q8BLA8 whole entry): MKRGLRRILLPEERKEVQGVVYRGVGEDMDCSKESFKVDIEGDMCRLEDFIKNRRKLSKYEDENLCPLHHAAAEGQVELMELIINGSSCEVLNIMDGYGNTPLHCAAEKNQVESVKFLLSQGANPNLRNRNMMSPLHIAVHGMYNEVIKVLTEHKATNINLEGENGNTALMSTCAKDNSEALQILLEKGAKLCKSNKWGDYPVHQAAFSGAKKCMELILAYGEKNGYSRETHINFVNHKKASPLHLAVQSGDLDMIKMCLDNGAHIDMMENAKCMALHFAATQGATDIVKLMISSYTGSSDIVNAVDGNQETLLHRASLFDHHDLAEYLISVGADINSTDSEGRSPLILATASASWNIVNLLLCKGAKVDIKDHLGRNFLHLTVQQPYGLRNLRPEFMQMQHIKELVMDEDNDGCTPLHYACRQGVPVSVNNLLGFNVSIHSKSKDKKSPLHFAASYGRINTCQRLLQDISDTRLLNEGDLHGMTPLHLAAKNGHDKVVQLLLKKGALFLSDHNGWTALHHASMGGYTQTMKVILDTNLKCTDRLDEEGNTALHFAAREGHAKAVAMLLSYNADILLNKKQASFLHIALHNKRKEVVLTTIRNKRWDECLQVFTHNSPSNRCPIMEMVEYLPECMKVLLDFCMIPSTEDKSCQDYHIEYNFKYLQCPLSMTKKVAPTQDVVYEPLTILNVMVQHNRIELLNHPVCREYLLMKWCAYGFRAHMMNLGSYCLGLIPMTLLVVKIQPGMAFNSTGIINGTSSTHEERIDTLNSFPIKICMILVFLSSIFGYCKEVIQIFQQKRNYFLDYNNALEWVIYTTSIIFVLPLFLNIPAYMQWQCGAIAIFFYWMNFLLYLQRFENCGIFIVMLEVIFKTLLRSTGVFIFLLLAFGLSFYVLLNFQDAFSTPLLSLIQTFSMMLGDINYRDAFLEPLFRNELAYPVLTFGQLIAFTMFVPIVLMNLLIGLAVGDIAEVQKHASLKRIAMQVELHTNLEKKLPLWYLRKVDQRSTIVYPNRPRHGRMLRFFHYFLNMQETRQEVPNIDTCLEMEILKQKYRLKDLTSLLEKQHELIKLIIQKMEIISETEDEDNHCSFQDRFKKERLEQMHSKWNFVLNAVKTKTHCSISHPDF

Molecule: Palmitoyl-WKVRQRSKKAQQQESQTALVANQRSLFA-COOH (Palmitoyl-WKVRQRSKKAQQQESQTALVANQRSLFA-OH; SMILES CCCCCCCCCCCCCCCC(=O)N[C@@H](Cc1c[nH]c2ccccc12)C(=O)N[C@@H](CCCCN)C(=O)N[C@H](C(=O)N[C@@H](CCCNC(=N)N)C(=O)N[C@@H](CCC(N)=O)C(=O)N[C@@H](CCCNC(=N)N)C(=O)N[C@@H](CO)C(=O)N[C@@H](CCCCN)C(=O)N[C@@H](CCCCN)C(=O)N[C@@H](C)C(=O)N[C@@H](CCC(N)=O)C(=O)N[C@@H](CCC(N)=O)C(=O)N[C@@H](CCC(N)=O)C(=O)N[C@@H](CCC(=O)O)C(=O)N[C@@H](CO)C(=O)N[C@@H](CCC(N)=O)C(=O)N[C@H](C(=O)N[C@@H](C)C(=O)N[C@@H](CC(C)C)C(=O)N[C@H](C(=O)N[C@@H](C)C(=O)N[C@@H](CC(N)=O)C(=O)N[C@@H](CCC(N)=O)C(=O)N[C@@H](CCCNC(=N)N)C(=O)N[C@@H](CO)C(=O)N[C@@H](CC(C)C)C(=O)N[C@@H](Cc1ccccc1)C(=O)N[C@@H](C)C(=O)O)C(C)C)[C@@H](C)O)C(C)C; listed as Homo sapiens) [h-T100]
- conditioned place preference: time in drug-paired chamber, SNL rats ([1]; listed as P2-Mut): increased
- conditioned place preference: time in drug-paired chamber, SNL rats ([1]; listed as human T100-Mut): induced robust the conditioned place preference
- chamber preference in sham-operated rats ([1]; sham-operated): did not induce chamber preference
- SNL-induced mechanical hyperalgesia / allodynia in mice [2]: alleviates
- contralateral PWT after drug injection [3]: no significant change
- ipsilateral paw withdrawal threshold (PWT) vs pre-drug ([3]; h-T100 10-100 μM, HC-030031 10-200 μM, scrambled 100 μM): dose-dependently increased

Molecule: F2: shortened CPP consisting of the first 18 amino acids of the T100-Mut (SEQ ID NO: 17) (WKVRQRNKKVQQQESQTA; listed as Mus musculus)
- SNL-induced mechanical hyperalgesia / allodynia in mice [2]: blocked
- paclitaxel-induced mechanical hyperalgesia [4]: effective
- percentage of cells responsive to CA (TRPA1): significantly reduced; also recorded: same inhibitory effects

- decrease of FRET efficiency against cells expressing only TRPA1-V1 (TRPV1-CFP [5]): 34%
- increase of the TRPA1-TRPV1 interaction (FRET efficiency) against cells expressing only TRPA1-V1 (TRPV1-CFP [6]): 43%
Molecule: TRPA1-YFP (receptor)

Molecule: B1
- binding result [7]: binds
- binding result [8]: binds

Molecule: B2
- binding result [9]: binds

Reference: patent publication US11066455B2, “Tmem100 peptides and variants thereof and their use in treating or preventing diseases or conditions” (The Johns Hopkins University, priority 2014, dated 2021)
